Assay results taken from publication PMC9516332 (Frontiers in Oncology, 2022).
Where two headings read alike, the source gives them in different places.

System: 134 cancer cell lines
Experiment: Cell viability assay (ATPlite, 72 hours), IC50 on cancer cell line panel

CN1CCN(c2ccc(C(=O)Nc3n[nH]c4ccc(Cc5cc(F)cc(F)c5)cc34)c(NC3CCOCC3)c2)CC1 [entrectinib]
IC50 (Homo sapiens, MOLM-13, read-out: IC50 in cell proliferation assay, MOLM-13 cell line (FLT3 ITD)): 0.214 µM | IC50 (Homo sapiens, MOLT-4, read-out: IC50 in cell proliferation assay, MOLT-4 cell line): 11.3 µM | IC50 (Homo sapiens, MV4-11, read-out: IC50 in cell proliferation assay, MV4-11 cell line (FLT3 ITD)): 0.281 µM | IC50 (Homo sapiens, MeWo, read-out: IC50 in cell proliferation assay, MeWo cell line): 10.1 µM | IC50 (Homo sapiens, NCCIT, read-out: IC50 in cell proliferation assay, NCC-IT cell line): 6.38 µM | IC50 (Homo sapiens, NCI-H82, read-out: IC50 in cell proliferation assay, cell line NCI-H82): 9.7 µM | IC50 (Homo sapiens, NCI-H460, read-out: IC50 in cell proliferation assay, NCI-H460 cell line): 9.99 µM | IC50 (Homo sapiens, NCI-H661, read-out: IC50 in cell proliferation assay, NCI-H661 cell line): 4.03 µM | IC50 (Homo sapiens, NCI-H716, read-out: IC50 in cell proliferation assay, cell line NCI-H716 (FGFR2-COL14A1)): 1.46 µM | IC50 (Homo sapiens, NCI-H1650, read-out: IC50 in cell proliferation assay, NCI-H1650 cell line (EGFR exon19del)): 2.44 µM | IC50 (Homo sapiens, NCI-H1975, read-out: IC50 in cell proliferation assay, NCI-H1975 cell line (EGFR p.L858R + p.T790M)): 4.15 µM | IC50 (Homo sapiens, NCI-H2228, read-out: IC50 in cell proliferation assay, NCI-H2228 cell line (EML4-ALK)): 0.196 µM | IC50 (Homo sapiens, OVCAR-3, read-out: IC50 in cell proliferation assay, cell line OVCAR-3): 8.35 µM | IC50 (Homo sapiens, PFSK-1, read-out: IC50 in cell proliferation assay, cell line PFSK-1): 7.82 µM | IC50 (Homo sapiens, RL95-2, read-out: IC50 in cell proliferation assay, cell line RL95-2 (EGFR p.A289V)): 3.32 µM | IC50 (Homo sapiens, RPMI-7951, read-out: IC50 in cell proliferation assay, cell line RPMI-7951 (BRAF p.V600E)): 4.02 µM | IC50 (Homo sapiens, RS4-11, read-out: IC50 in cell proliferation assay, cell line RS4;11): 8.24 µM | IC50 (Homo sapiens, Rec1, read-out: IC50 in cell proliferation assay, cell line REC-1): 5.02 µM | IC50 (Homo sapiens, SHP77, read-out: IC50 in cell proliferation assay, cell line SHP-77): 12.7 µM | IC50 (Homo sapiens, SK-BR-3, read-out: IC50 in cell proliferation assay, cell line SK-BR-3 (ERBB2 amplification)): 11.1 µM | IC50 (Homo sapiens, SK-N-AS, read-out: IC50 in cell proliferation assay, cell line SK-N-AS): 5.34 µM | IC50 (Homo sapiens, SK-N-FI, read-out: IC50 in cell proliferation assay, cell line SK-N-FI): 4.06 µM | IC50 (Homo sapiens, SK-N-MC, read-out: IC50 in cell proliferation assay, cell line SK-N-MC): 4.62 µM | IC50 (Homo sapiens, SK-N-SH, read-out: IC50 in cell proliferation assay, cell line SK-N-SH (ALK p.F1174L)): 2.8 µM | IC50 (Homo sapiens, SNU-5, read-out: IC50 in cell proliferation assay, cell line SNU-5 (MET amplification)): 9.58 µM | IC50 (Homo sapiens, SNU-16, read-out: IC50 in cell proliferation assay, cell line SNU-16 (FGFR2 amplification)): 2.13 µM | IC50 (Homo sapiens, SNU-C2B, read-out: IC50 in cell proliferation assay, cell line SNU-C2B (EGFR p.R165Q)): 8.12 µM | IC50 (Homo sapiens, SU-DHL-1, read-out: IC50 in cell proliferation assay, cell line SU-DHL-1 (NPM1-ALK)): 0.607 µM | IC50 (Homo sapiens, SU-DHL-6, read-out: IC50 in cell proliferation assay, cell line SU-DHL-6): 7.74 µM | IC50 (Homo sapiens, SUP-T1, read-out: IC50 in cell proliferation assay, cell line SUP-T1): 11 µM | IC50 (Homo sapiens, SW48, read-out: IC50 in cell proliferation assay, cell line SW48 (EGFR p.G719S)): 5.31 µM | IC50 (Homo sapiens, SW480, read-out: IC50 in cell proliferation assay, cell line SW480): 6.93 µM | IC50 (Homo sapiens, SW626, read-out: IC50 in cell proliferation assay, cell line SW626): 7.38 µM | IC50 (Homo sapiens, SW780, read-out: IC50 in cell proliferation assay, cell line SW780 (FGFR3-BAIAP2L1)): 2.85 µM | IC50 (Homo sapiens, SW837, read-out: IC50 in cell proliferation assay, cell line SW837): 8.38 µM | IC50 (Homo sapiens, SW872, read-out: IC50 in cell proliferation assay, cell line SW872 (BRAF p.V600E)): 6.09 µM | IC50 (Homo sapiens, SW900, read-out: IC50 in cell proliferation assay, cell line SW900): 6.64 µM | IC50 (Homo sapiens, SW948, read-out: IC50 in cell proliferation assay, cell line SW948): 9.44 µM | IC50 (Homo sapiens, SW982, read-out: IC50 in cell proliferation assay, cell line SW982 (BRAF p.V600E)): 5.31 µM | IC50 (Homo sapiens, SW-620, read-out: IC50 in cell proliferation assay, cell line SW620): 6.33 µM | IC50 (Homo sapiens, T98G, read-out: IC50 in cell proliferation assay, cell line T98G): 5.59 µM | IC50 (Homo sapiens, TCC-SUP, read-out: IC50 in cell proliferation assay, cell line TCCSUP): 6.42 µM | IC50 (Homo sapiens, THP-1, read-out: IC50 in cell proliferation assay, cell line THP-1): 12.9 µM | IC50 (Homo sapiens, U2OS, read-out: IC50 in cell proliferation assay, cell line U2OS): 4.45 µM | IC50 (Homo sapiens, U-87 MG, read-out: IC50 in cell proliferation assay, cell line U-87MG ATCC): 7.08 µM | IC50 (Homo sapiens, U-118-MG, read-out: IC50 in cell proliferation assay, cell line U-118MG): 6.88 µM | IC50 (Homo sapiens, UMUC3, read-out: IC50 in cell proliferation assay, cell line UM-UC-3): 6.87 µM | IC50 (Hs766T, read-out: IC50 in cell proliferation assay, Hs 766T cell line): 7.08 µM | IC50 (L-82, read-out: IC50 in cell proliferation assay, L-82 cell line (NPM1-ALK)): 0.125 µM | IC50 (Rh30, read-out: IC50 in cell proliferation assay, cell line Rh30): 4.64 µM | IC50 (read-out: IC50 in cell proliferation assay, 11-18 cell line (EGFR p.L858R)): 4.17 µM | IC50 (read-out: IC50 in cell proliferation assay, Hs 852.T cell line): 4.09 µM | IC50 (read-out: IC50 in cell proliferation assay, JAR cell line): 5.04 µM | IC50 (read-out: IC50 in cell proliferation assay, cell line 5637): 5.56 µM | IC50 (read-out: IC50 in cell proliferation assay, cell line A-388): 10.3 µM | IC50 (read-out: IC50 in cell proliferation assay, cell line DB): 10.5 µM | IC50 (read-out: IC50 in cell proliferation assay, cell line DEL (NPM1-ALK)): 0.216 µM | IC50 (read-out: IC50 in cell proliferation assay, cell line ES-2 (BRAF p.V600E)): 4.86 µM | IC50 (read-out: IC50 in cell proliferation assay, cell line PA-1): 3.03 µM | IC50 (read-out: IC50 in cell proliferation assay, cell line PC-3): 11 µM | IC50 (read-out: IC50 in cell proliferation assay, cell line RD): 5.09 µM | IC50 (read-out: IC50 in cell proliferation assay, cell line RKO (BRAF p.V600E)): 4.68 µM | IC50 (read-out: IC50 in cell proliferation assay, cell line RL): 10.9 µM | IC50 (read-out: IC50 in cell proliferation assay, cell line RT-4 (FGFR3-TACC3)): 2.94 µM | IC50 (read-out: IC50 in cell proliferation assay, cell line SR (NPM1-ALK)): 0.72 µM | IC50 (read-out: IC50 in cell proliferation assay, cell line T24): 7.12 µM | IC50 (read-out: IC50 in cell proliferation assay, cell line TT (RET p.C634W)): 9.26 µM | IC50 (read-out: IC50 in cell proliferation assay, cell line VA-ES-BJ): 6.41 µM
